Assay results reported in the supplement of paper PMC4862054.
Several values for one entry are separate records, joined by “and”; a condition that tells them apart may be missing. Identical values can stand only once.

Key:
Conditions in all cases: incubation time: 72 h
DU-4475 [1] = test: normalised viability (% of control), CellTiter-Blue; higher = more viable cells (about 100 = DMSO control)
Procedure: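 DSRT, CellTiter-Blue viability, 72 h incubation. Signal is normalised to DMSO and benzethonium chloride controls. Value is the normalised response at dose 7.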

DU-4475 [2] = test: normalised response (% of control), CellTiter-Glo; higher = more viable cells (100 = DMSO, 0 = benzethonium chloride kill control)
In short: (§1)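 Values are normalised signals, each belonging to one concentration of the series. Breast cancer cells (20 µl suspension) were seeded into 384-well plates with compound at 5 concentrations in 10-fold steps over a compound-specific 10,000-fold range and incubated 72 h. Readouts were CellTox Green fluorescence (485/520 nm), then CellTiter-Glo luminescence after 10 min at room temperature, with each plate set to 0.1 % DMSO as 100 and a positive kill control as 0.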

CAL-51 = test: as above
In short: as §1

HCC1143 = test: as above
In short: as §1

Hs578T = test: as above
In short: as §1

BT-474 = test: as above
In short: as §1

HDQ-P1 = test: as above
In short: as §1

MFM-223 = test: as above
In short: as §1

MDA-MB-468 = test: as above
In short: as §1

MCF-10A = test: as above
In short: as §1

MDA-MB-436 = test: as above
In short: as §1

HCC1937 = test: as above
In short: as §1

HCC1599 = test: as above
In short: as §1

CAL-85-1 = test: as above
In short: as §1

SK-BR-3 = test: as above
In short: as §1

MDA-MB-231 [3] = test: as above
In short: as §1

MDA-MB-453 = test: as above
In short: as §1

CAL-148 = test: as above
In short: as §1

BT-549 = test: as above
In short: as §1

CAL-120 = test: as above
In short: as §1

MDA-MB-231 [4] = test: drug sensitivity score (DSS), CellTiter-Glo (DSS (AUC-based score)); higher = stronger drug effect (viability inhibition or cytotoxicity); extreme values may be limits of the assay
In short: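 Breast cancer cells were seeded into 384-well plates containing compound at 5 concentrations in 10-fold steps over a compound-specific 10,000-fold range and incubated 72 h. After CellTox Green and CellTiter-Glo readings, each plate was normalised to 0.1 % DMSO and a positive kill control. The drug sensitivity score rests on the area under the fitted dose-response curve.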

Row | Compound | normalised viability (DU-4475 [1]) | normalised response (DU-4475 [2]) | normalised response (CAL-51) | normalised response (HCC1143) | normalised response (Hs578T) | normalised response (BT-474) | normalised response (HDQ-P1) | normalised response (MFM-223) | normalised response (MDA-MB-468) | normalised response (MCF-10A) | normalised response (MDA-MB-436) | normalised response (HCC1937) | normalised response (HCC1599) | normalised response (CAL-85-1) | normalised response (SK-BR-3) | normalised response (MDA-MB-231 [3]) | normalised response (MDA-MB-453) | normalised response (CAL-148) | normalised response (BT-549) | normalised response (CAL-120) | drug sensitivity score (MDA-MB-231 [4])
1 | CCOc1cc2ncc(C#N)c(Nc3ccc(OCc4ccccn4)c(Cl)c3)c2cc1NC(=O)/C=C/CN(C)C [Neratinib] (100 nM) | 102% | 101% | 112% | 98.8% | 103% | 102% | 69.8% | 101% | 82.8% | 43.1% | 95% | 88% | 102% | 67.9% | 25% | 102% | 68% | 83.4% | 97.5% | 99% | –
2 | CS(=O)(=O)OCCCCOS(C)(=O)=O [Busulfan] (10000 nM) | 103% | 107% | 109% | 99.1% | 109% | 93.7% | 98.3% | 107% | 109% | 98.9% | 101% | 99.6% | 103% | 98.2% | 110% | 102% | 115% | 102% | 97.3% | 94.9% | –
3 | COC1=CC(c2cc3ccccc3[nH]2)=N/C1=C\c1[nH]c(C)cc1C [Obatoclax] (1000 nM) | 78.4% | 89.7% | 99.5% | 87.4% | 91.7% | 65.4% | 97% | 93.7% | 83% | 92.8% | 89.7% | 63.4% | 97.1% | 76.6% | 87% | 64% | 96.3% | 81.5% | 77.3% | 94.2% | –
4 | O=c1[nH]cc(F)c(=O)[nH]1 [Fluorouracil] (1000 nM) | 105% | 90.2% | 110% | 100% | 97.1% | 111% | 92.2% | 102% | 98.7% | 116% | 75.6% | 94.7% | 84% | 52.8% | 78.9% | 97.7% | 121% | 95.6% | 104% | 106% | –
5 | C[C@@H]1C=C2C(=O)O[C@@H]3CC[C@H](C1)[C@]23O [Galiellalactone] (5000 nM) | 118% | 102% | 71.9% | 101% | 111% | 99.3% | 100% | 104% | 82% | 105% | 106% | 98.4% | 98.4% | 96.2% | 102% | 114% | 105% | 110% | 97.6% | 103% | –
6 | Cn1cnc2c(F)c(Nc3ccc(Br)cc3F)c(C(=O)NOCCO)cc21 [MEK-162] (100 nM) | 25.7% | 42.6% | 104% | 90.5% | 86.2% | 88.8% | 71.4% | 102% | 94.7% | 49% | 100% | 95% | 104% | 99.2% | 101% | 92% | 104% | 91.1% | 100% | 94% | –
7 | CN(c1ccccc1CNc1nc(Nc2ccc3c(c2)CC(=O)N3)ncc1C(F)(F)F)S(C)(=O)=O | – | – | – | – | – | – | – | – | – | – | – | – | – | – | – | – | – | – | – | – | 7.82
8 | O=C(c1ccc(OCCN2CCCCC2)cc1)c1c(-c2ccc(O)cc2)sc2cc(O)ccc12 [Raloxifene] (1000 nM) | 86.2% | 103% | 121% | 110% | 107% | 102% | 100% | 95.6% | 92.6% | 108% | 103% | 100% | 99.8% | 94.4% | 105% | 107% | 103% | 103% | 102% | 96.3% | –
9 | COc1ccc(C2=N[C@@H](c3ccc(Cl)cc3)[C@@H](c3ccc(Cl)cc3)N2C(=O)N2CCNC(=O)C2)c(OC(C)C)c1 [Nutlin-3] (1000 nM) | 94.7% | 96.5% | 83.9% | 99.8% | 106% | 98.9% | 105% | 104% | 99.9% | 102% | 110% | 102% | 117% | 96.8% | 109% | 106% | 102% | 101% | 100% | 93.6% | –
10 | CCS(=O)(=O)c1cccc(-c2cc(C(=O)NC3CCN(C)CC3)c(C)c3[nH]c4ncc(C)cc4c23)c1 [TAK-901] (100 nM) | 78.5% | 98.5% | 82.4% | 77.2% | 98.2% | 82% | 86.2% | 79.5% | 38.5% | 80.2% | 97.2% | 102% | 109% | 103% | 106% | 77.6% | 160% | 45.6% | 82% | 81.5% | –
11 | COc1ccc(C2=N[C@@H](c3ccc(Cl)cc3)[C@@H](c3ccc(Cl)cc3)N2C(=O)N2CCNC(=O)C2)c(OC(C)C)c1 [Nutlin-3] | – | – | – | – | – | – | – | – | – | – | – | – | – | – | – | – | – | – | – | – | 0
12 | CCOc1cc2ncc(C#N)c(Nc3ccc(OCc4ccccn4)c(Cl)c3)c2cc1NC(=O)/C=C/CN(C)C [Neratinib] | – | – | – | – | – | – | – | – | – | – | – | – | – | – | – | – | – | – | – | – | 0
13 | Cc1cc(C(C)Nc2ccccc2)c2nc(N3CCOCC3)cc(=O)n2c1 (stereo unspecified) [TGX-221] | – | – | – | – | – | – | – | – | – | – | – | – | – | – | – | – | – | – | – | – | 0
14 | COc1cc(Nc2ncc(F)c(Nc3ccc4c(n3)NC(=O)C(C)(C)O4)n2)cc(OC)c1OC [Tamatinib] | – | – | – | – | – | – | – | – | – | – | – | – | – | – | – | – | – | – | – | – | 0
15 | O=C(c1ccc(OCCN2CCCCC2)cc1)c1c(-c2ccc(O)cc2)sc2cc(O)ccc12 [Raloxifene] | – | – | – | – | – | – | – | – | – | – | – | – | – | – | – | – | – | – | – | – | 0
16 | CC(=O)O[C@H]1C(=O)[C@@]2(C)[C@H]([C@H](OC(=O)c3ccccc3)[C@]3(O)C[C@H](OC(=O)[C@H](O)[C@@H](NC(=O)c4ccccc4)c4ccccc4)C(C)=C1C3(C)C)[C@]1(OC(C)=O)CO[C@@H]1C[C@@H]2O [Paclitaxel] (100 nM) | 27.3% | 51.5% | 29.3% | 30.7% | 11.4% | 36.7% | 60.4% | 38.2% | 21.7% | 33.5% | 28.1% | 66.2% | 36.2% | 20.9% | 10.2% | 33.2% | 57.5% | 39.6% | 15% | 47.7% | –
17 | C[C@@]1(C(=O)Nc2ccc(F)nc2)CCCN1c1nc(Nc2cc(C3CC3)n[nH]2)c2cccn2n1 (1000 nM) | 78.6% | 80.4% | 62.5% | 71.5% | 86.5% | 62.8% | 46.7% | 58.1% | 21.4% | 20.4% | 66.9% | 86.9% | 72.8% | 57.6% | 67.9% | 62.4% | 115% | 84.9% | 61.4% | 59.3% | –
18 | FC(F)c1nc2ccccc2n1-c1nc(N2CCOCC2)nc(N2CCOCC2)n1 [ZSTK474] | – | – | – | – | – | – | – | – | – | – | – | – | – | – | – | – | – | – | – | – | 7.99
19 | C[C@@H]1CCN(C(=O)CC#N)C[C@@H]1N(C)c1ncnc2[nH]ccc12 [Tofacitinib] | – | – | – | – | – | – | – | – | – | – | – | – | – | – | – | – | – | – | – | – | 0
20 | CS(=O)(=O)CCNCc1ccc(-c2ccc3ncnc(Nc4ccc(OCc5cccc(F)c5)c(Cl)c4)c3c2)o1 [Lapatinib] (1000 nM) | 94.5% and 86.5% | – | – | – | – | – | – | – | – | – | – | – | – | – | – | – | – | – | – | – | –
21 | O=c1[nH]c(=O)n([C@H]2C[C@H](O)[C@@H](CO)O2)cc1F [Floxuridine] (1000 nM) | 91.6% | 92.8% | 37.8% | 94.3% | 13.5% | 67.1% | 83.9% | 104% | 69.4% | 106% | 67.9% | 56.4% | 67.7% | 42.7% | 54.2% | 76.8% | 102% | 92.4% | 85.4% | 39.8% | –
22 | COc1c(C)cnc(Cn2cnc3c(Cl)nc(N)nc32)c1C [BIIB021] (1000 nM) | 0.09% | 0.4% | 19% | 38.6% | 55.5% | 31.1% | 29.5% | 40.2% | 43.4% | 15.4% | 42.5% | 24.7% | 54.3% | 26.9% | 37.8% | 25.5% | 27.8% | 23.9% | 37.3% | 53.6% | –
23 | Cn1c(=O)c(F)c(Nc2ccc(I)cc2F)c2c(=O)n(C[C@@H](O)CO)cnc21 [TAK-733] (100 nM) | 0.99% | 1.33% | 64.6% | 93.5% | 96.5% | 67.2% | 66.3% | 98.8% | 79.6% | 38.8% | 97.1% | 82.7% | 93% | 69.8% | 117% | 78% | 123% | 90.4% | 91.6% | 76.7% | –
24 | CCCC(CCC)C(=O)O [Valproic acid] | – | – | – | – | – | – | – | – | – | – | – | – | – | – | – | – | – | – | – | – | 0
25 | Nc1nccc(-c2c(-c3ccc(F)cc3)ncn2C2CCCCC2)n1 | – | – | – | – | – | – | – | – | – | – | – | – | – | – | – | – | – | – | – | – | 0
